Data taken from patent publication US9896435B2, “N-pyrrolidinyl,N′-pyrazolyl-urea, thiourea, guanidine and cyanoguanidine compounds as TrkA kinase inhibitors” (Array BioPharma Inc., priority 2012, dated 2018).

target: His-tagged recombinant human TrkA (Homo sapiens (Human), UniProt P04629); experiment: TrkA LanthaScreen Eu Kinase Binding Assay; conditions: averaged IC50; LanthaScreen binding assay of Example A; read-out: TrkA Enzyme IC50
Experimental: TrkA binding activity was determined in a TrkA LanthaScreen™ Eu Kinase Binding Assay. 5 nM His-tagged recombinant human TrkA (6HIS tagged cytoplasmic domain from Invitrogen, Catalog No. PV3144) was incubated with 4 nM Alexa-Fluor® Tracer 236 (Invitrogen Cat. No. PV5592), 2 nM biotinylated anti-His (Invitrogen Cat. No. PV6090), and 2 nM europium-labeled Streptavidin (Invitrogen Cat. No. PV5899), in buffer (25 mM MOPS, pH 7.5, 5 mM MgCl2, 0.005% Triton X-100). Three fold serial dilutions of compounds of the invention in DMSO were added to a final percentage of 2% DMSO. After 60-minute incubation at 22° C., the reaction was measured using the EnVision mutlimode plate reader (PerkinElmer) via TR-FRET dual wavelength detection at […]. The percent of control was calculated using a ratiometric emission factor. The IC50 values were determined by fitting a four parameter model to the percent of control data.
Table A provides averaged IC50 values for compounds of the invention when tested in the assay of Example A, where A represents an averaged IC50 value<100 nM.

Chain of His-tagged recombinant human TrkA (P04629 440-796): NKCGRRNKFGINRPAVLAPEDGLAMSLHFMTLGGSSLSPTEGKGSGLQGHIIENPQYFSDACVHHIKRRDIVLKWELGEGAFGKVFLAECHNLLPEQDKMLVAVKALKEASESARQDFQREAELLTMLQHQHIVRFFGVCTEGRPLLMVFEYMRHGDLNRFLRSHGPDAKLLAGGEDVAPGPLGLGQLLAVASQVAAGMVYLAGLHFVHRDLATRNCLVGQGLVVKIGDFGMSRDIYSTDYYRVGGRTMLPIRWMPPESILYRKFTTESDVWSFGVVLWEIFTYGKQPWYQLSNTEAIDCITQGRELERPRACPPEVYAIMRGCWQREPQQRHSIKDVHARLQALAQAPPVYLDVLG

IC50, < 100 nM:
COCCN1C[C@@H](NC(=O)Nc2c(C)c(-c3cnc(C4CC4)nc3)nn2-c2ccccc2)[C@H](c2ccc(F)c(F)c2)C1 [Example 10, 1-(3-(2-cyclopropylpyrimidin-5-yl)-4-methyl-1-phenyl-1H-pyrazol-5-yl)-3-((3S,4R)-4-(3,4-difluorophenyl)-1-(2-methoxyethyl)pyrrolidin-3-yl)urea]
COCCN1C[C@@H](NC(=O)Nc2c(C)c(-c3ccc(=O)n(C)c3)nn2-c2ccccc2)[C@H](c2cc(F)cc(Cl)c2)C1 (relative stereo) [Example 24, 1-(trans-4-(3-chloro-5-fluorophenyl)-1-(2-methoxyethyl)pyrrolidin-3-yl)-3-(4-methyl-3-(1-methyl-6-oxo-1,6-dihydropyridin-3-yl)-1-phenyl-1H-pyrazol-5-yl)urea]
CCOc1ncc(-c2nn(-c3ccccc3)c(NC(=O)N[C@@H]3CN(CCOC)C[C@H]3c3cc(F)cc(F)c3)c2C)cn1 [Example 16, 1-((3S,4R)-4-(3,5-difluorophenyl)-1-(2-methoxyethyl)pyrrolidin-3-yl)-3-(3-(2-ethoxypyrimidin-5-yl)-4-methyl-1-phenyl-1H-pyrazol-5-yl)urea]
COCCN1C[C@@H](NC(=O)Nc2c(C)c(S(C)(=O)=O)nn2-c2ccccc2)[C@H](c2ccc(F)c(F)c2)C1 [Example 30, 1-((3S,4R)-4-(3,4-difluorophenyl)-1-(2-methoxyethyl)pyrrolidin-3-yl)-3-(4-methyl-3-(methylsulfonyl)-1-phenyl-1H-pyrazol-5-yl)urea]
COCCN1C[C@@H](NC(=O)Nc2c(C)c(-c3ccc(=O)n(C)c3)nn2-c2ccccc2)[C@H](c2ccc(Cl)c(F)c2)C1 (relative stereo) [Example 23, 1-(trans-4-(4-chloro-3-fluorophenyl)-1-(2-methoxyethyl)pyrrolidin-3-yl)-3-(4-methyl-3-(1-methyl-6-oxo-1,6-dihydropyridin-3-yl)-1-phenyl-1H-pyrazol-5-yl)urea]
COCCN1C[C@@H](NC(=O)Nc2c(C)c(C(C)=O)nn2-c2ccccc2)[C@H](c2ccc(F)c(F)c2)C1 [Example 31, 1-(3-acetyl-4-methyl-1-phenyl-1H-pyrazol-5-yl)-3-((3S,4R)-4-(3,4-difluorophenyl)-1-(2-methoxyethyl)pyrrolidin-3-yl)urea]
COCCN1C[C@@H](NC(=O)Nc2c(C)c(-c3cc(C)c(=O)n(C)c3)nn2-c2ccccc2)[C@H](c2ccc(F)c(F)c2)C1 [Example 29, 1-((3S,4R)-4-(3,4-difluorophenyl)-1-(2-methoxyethyl)pyrrolidin-3-yl)-3-(3-(1,5-dimethyl-6-oxo-1,6-dihydropyridin-3-yl)-4-methyl-1-phenyl-1H-pyrazol-5-yl)urea]
COCCN1C[C@@H](NC(=O)Nc2c(C)c(-c3ccc(=O)n(C)n3)nn2-c2ccccc2)[C@H](c2ccc(F)c(F)c2)C1 [Example 17, 1-((3S,4R)-4-(3,4-difluorophenyl)-1-(2-methoxyethyl)pyrrolidin-3-yl)-3-(4-methyl-3-(1-methyl-6-oxo-1,6-dihydropyridazin-3-yl)-1-phenyl-1H-pyrazol-5-yl)urea]
COCCN1C[C@@H](NC(=O)Nc2c(C)c(-c3cnc(OC)nc3)nn2-c2ccccc2)[C@H](c2cc(F)cc(F)c2)C1 [Example 12, 1-((3S,4R)-4-(3,5-difluorophenyl)-1-(2-methoxyethyl)pyrrolidin-3-yl)-3-(3-(2-methoxypyrimidin-5-yl)-4-methyl-1-phenyl-1H-pyrazol-5-yl)urea]
COCCN1C[C@@H](NC(=O)Nc2c(C)c(-c3cncc(C)c3)nn2-c2ccccc2)[C@H](c2ccc(F)c(F)c2)C1 [Example 5, 1-((3S,4R)-4-(3,4-difluorophenyl)-1-(2-methoxyethyl)pyrrolidin-3-yl)-3-(4-methyl-3-(5-methylpyridin-3-yl)-1-phenyl-1H-pyrazol-5-yl)urea]
COCCN1C[C@@H](NC(=O)Nc2c(C)c(-c3ccc(=O)n(C)c3)nn2-c2ccccc2)[C@H](c2cccc(Cl)c2)C1 (relative stereo) [Example 25, 1-(trans-4-(3-chlorophenyl)-1-(2-methoxyethyl)pyrrolidin-3-yl)-3-(4-methyl-3-(1-methyl-6-oxo-1,6-dihydropyridin-3-yl)-1-phenyl-1H-pyrazol-5-yl)urea]
COCCN1C[C@@H](NC(=O)Nc2c(C)c(-c3cnc(NC4CC4)nc3)nn2-c2ccccc2)[C@H](c2ccc(F)cc2)C1 [Example 21, 1-(3-(2-(cyclopropylamino)pyrimidin-5-yl)-4-methyl-1-phenyl-1H-pyrazol-5-yl)-3-((3S,4R)-4-(4-fluorophenyl)-1-(2-methoxyethyl)pyrrolidin-3-yl)urea di-trifluoroacetate]
COCCN1C[C@@H](NC(=O)Nc2c(C)c(-c3ccc(=O)n(C)c3)nn2-c2ccccc2)[C@H](c2ccc(F)c(Cl)c2)C1 (relative stereo) [Example 22, 1-(trans-4-(3-chloro-4-fluorophenyl)-1-(2-methoxyethyl)pyrrolidin-3-yl)-3-(4-methyl-3-(1-methyl-6-oxo-1,6-dihydropyridin-3-yl)-1-phenyl-1H-pyrazol-5-yl)urea]
COCCN1C[C@@H](NC(=O)Nc2c(C)c(-c3cnc(C4CC4)nc3)nn2-c2ccccc2)[C@H](c2ccc(F)cc2)C1 [Example 11, 1-(3-(2-cyclopropylprimidin-5-yl)-4-methyl-1-phenyl-1H-pyrazol-5-yl)-3-((3S,4R)-4-(4-fluorophenyl)-1-(2-methoxyethyl)pyrrolidin-3-yl)urea]
COCCN1C[C@@H](NC(=O)Nc2c(C)c(-c3cnc(=O)n(C)c3)nn2-c2ccccc2)[C@H](c2ccc(F)c(F)c2)C1 [Example 28, 1-((3S,4R)-4-(3,4-difluorophenyl)-1-(2-methoxyethyl)pyrrolidin-3-yl)-3-(4-methyl-3-(1-methyl-2-oxo-1,2-dihydropyrimidin-5-yl)-1-phenyl-1H-pyrazol-5-yl)urea]
CCOc1ncc(-c2nn(-c3ccccc3)c(NC(=O)N[C@@H]3CN(CCOC)C[C@H]3c3ccc(F)cc3)c2C)cn1 [Example 15, 1-(3-(2-ethoxypyrimidin-5-yl)-4-methyl-1-phenyl-1H-pyrazol-5-yl)-3-((3S,4R)-4-(4-fluorophenyl)-1-(2-methoxyethyl)pyrrolidin-3-yl)urea]
COCCN1C[C@@H](NC(=O)Nc2c(C)c(-c3cccnc3C)nn2-c2ccccc2)[C@H](c2ccc(F)c(F)c2)C1 [Example 4, 1-((3S,4R)-4-(3,4-difluorophenyl)-1-(2-methoxyethyl)pyrrolidin-3-yl)-3-(4-methyl-3-(2-methylpyridin-3-yl)-1-phenyl-1H-pyrazol-5-yl)urea]
COCCN1C[C@@H](NC(=O)Nc2c(C)c(-c3ccc(=O)n(C)n3)nn2-c2ccccc2)[C@H](c2ccc(F)cc2)C1 [Example 18, 1-((3S,4R)-4-(4-fluorophenyl)-1-(2-methoxyethyl)pyrrolidin-3-yl)-3-(4-methyl-3-(1-methyl-6-oxo-1,6-dihydropyridazin-3-yl)-1-phenyl-1H-pyrazol-5-yl)urea]
COCCN1C[C@@H](NC(=O)Nc2c(C)c(-c3ccc(C)nc3)nn2-c2ccccc2)[C@H](c2ccc(F)c(F)c2)C1 [Example 1, 1-((3S,4R)-4-(3,4-difluorophenyl)-1-(2-methoxyethyl)pyrrolidin-3-yl)-3-(4-methyl-3-(6-methylpyridin-3-yl)-1-phenyl-1H-pyrazol-5-yl)urea]
